Measurements published in patent US8604021B2, “Substituted arylamine compounds and methods of treatment” (priority 2005, dated 2013).

Legend:
M1 = target: T1, M1 (Homo sapiens, UniProt P11229); assay: Compound Binding Profiles: M1; settings: * = Estimated IC50
T1 sequence (P11229 1-460): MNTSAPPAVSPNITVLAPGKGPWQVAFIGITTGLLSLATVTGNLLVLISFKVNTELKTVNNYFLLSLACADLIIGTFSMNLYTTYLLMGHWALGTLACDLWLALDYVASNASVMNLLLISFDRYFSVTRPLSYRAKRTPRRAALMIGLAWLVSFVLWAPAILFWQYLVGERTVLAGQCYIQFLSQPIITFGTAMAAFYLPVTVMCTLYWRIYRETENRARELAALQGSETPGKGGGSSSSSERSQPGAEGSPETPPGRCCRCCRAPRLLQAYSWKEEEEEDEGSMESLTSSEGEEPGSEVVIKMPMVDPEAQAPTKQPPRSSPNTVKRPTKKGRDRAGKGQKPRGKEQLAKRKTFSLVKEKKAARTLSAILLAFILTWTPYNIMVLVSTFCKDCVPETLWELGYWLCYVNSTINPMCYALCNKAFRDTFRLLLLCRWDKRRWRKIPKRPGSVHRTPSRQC

D4 = target: T2, D4 (Homo sapiens, UniProt P21917); assay: Compound Binding Profiles: D4; settings: read-out: D4 binding class
T2 sequence (P21917 1-419): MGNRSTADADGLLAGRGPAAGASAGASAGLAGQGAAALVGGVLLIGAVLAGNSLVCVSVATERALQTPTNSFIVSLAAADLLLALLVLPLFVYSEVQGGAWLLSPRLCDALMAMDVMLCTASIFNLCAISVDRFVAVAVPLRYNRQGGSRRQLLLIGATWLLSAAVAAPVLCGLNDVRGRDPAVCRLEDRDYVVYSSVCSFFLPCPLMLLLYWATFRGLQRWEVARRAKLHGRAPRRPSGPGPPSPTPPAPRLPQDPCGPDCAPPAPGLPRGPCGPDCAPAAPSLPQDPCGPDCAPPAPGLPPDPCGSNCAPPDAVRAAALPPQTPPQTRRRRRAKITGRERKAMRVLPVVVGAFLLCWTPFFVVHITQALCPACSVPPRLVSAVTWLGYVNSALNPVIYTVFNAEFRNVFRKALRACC

D1 = D1 (Homo sapiens, UniProt P21728); assay: Compound Binding Profiles: D1; settings: read-out: D1 binding class
Sequence of D1 (P21728 whole entry): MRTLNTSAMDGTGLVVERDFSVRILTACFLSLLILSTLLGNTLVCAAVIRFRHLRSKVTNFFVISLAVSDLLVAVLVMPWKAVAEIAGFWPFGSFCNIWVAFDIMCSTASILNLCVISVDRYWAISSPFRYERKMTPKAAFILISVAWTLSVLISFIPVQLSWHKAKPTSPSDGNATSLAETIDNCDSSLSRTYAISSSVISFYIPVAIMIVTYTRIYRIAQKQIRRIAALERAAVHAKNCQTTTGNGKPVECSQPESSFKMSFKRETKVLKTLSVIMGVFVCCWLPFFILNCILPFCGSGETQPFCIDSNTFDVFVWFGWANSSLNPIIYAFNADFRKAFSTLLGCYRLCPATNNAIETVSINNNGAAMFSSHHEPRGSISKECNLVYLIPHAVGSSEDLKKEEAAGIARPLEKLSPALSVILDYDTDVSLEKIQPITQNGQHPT

CYP3A4 = CYP3A4 (Homo sapiens, UniProt P08684); assay: CYP inhibition CYP3A4
Sequence of CYP3A4 (P08684 whole entry): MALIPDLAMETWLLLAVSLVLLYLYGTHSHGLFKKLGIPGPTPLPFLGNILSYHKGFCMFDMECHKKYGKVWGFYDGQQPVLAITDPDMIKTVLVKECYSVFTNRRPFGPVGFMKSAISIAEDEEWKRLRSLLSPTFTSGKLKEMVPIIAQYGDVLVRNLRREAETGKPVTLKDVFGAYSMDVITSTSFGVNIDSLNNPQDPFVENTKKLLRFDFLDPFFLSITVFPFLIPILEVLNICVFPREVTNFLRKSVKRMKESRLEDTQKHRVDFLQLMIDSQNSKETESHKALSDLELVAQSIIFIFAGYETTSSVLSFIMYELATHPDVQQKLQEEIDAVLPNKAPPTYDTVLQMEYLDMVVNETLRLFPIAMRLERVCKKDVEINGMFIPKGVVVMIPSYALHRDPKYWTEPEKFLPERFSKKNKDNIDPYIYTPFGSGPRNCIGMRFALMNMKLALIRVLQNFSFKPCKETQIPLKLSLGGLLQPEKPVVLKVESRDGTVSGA

[1] = Oral pharmacokinetics in rodents; settings: in vivo, oral administration 5 mg/kg
5HT2A = 5HT2A (Homo sapiens, UniProt P28223); assay: Compound Binding Profiles: 5HT2A; settings: * = Estimated IC50
Sequence of 5HT2A (P28223 whole entry, species assumed): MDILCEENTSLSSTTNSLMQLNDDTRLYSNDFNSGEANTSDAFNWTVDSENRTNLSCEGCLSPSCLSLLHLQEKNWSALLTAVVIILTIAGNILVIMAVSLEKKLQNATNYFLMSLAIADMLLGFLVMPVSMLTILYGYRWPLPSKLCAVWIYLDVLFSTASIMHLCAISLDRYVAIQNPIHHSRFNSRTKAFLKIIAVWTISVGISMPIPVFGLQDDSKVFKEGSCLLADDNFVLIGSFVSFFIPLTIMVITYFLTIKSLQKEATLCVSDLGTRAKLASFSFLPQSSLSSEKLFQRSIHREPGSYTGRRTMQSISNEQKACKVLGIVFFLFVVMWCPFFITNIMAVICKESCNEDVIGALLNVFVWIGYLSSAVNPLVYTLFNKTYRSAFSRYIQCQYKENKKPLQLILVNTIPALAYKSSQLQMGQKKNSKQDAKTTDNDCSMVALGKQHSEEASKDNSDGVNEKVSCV

CYP2D6 = CYP2D6 (Homo sapiens, UniProt P10635); assay: CYP inhibition CYP2D6
Sequence of CYP2D6 (P10635 whole entry): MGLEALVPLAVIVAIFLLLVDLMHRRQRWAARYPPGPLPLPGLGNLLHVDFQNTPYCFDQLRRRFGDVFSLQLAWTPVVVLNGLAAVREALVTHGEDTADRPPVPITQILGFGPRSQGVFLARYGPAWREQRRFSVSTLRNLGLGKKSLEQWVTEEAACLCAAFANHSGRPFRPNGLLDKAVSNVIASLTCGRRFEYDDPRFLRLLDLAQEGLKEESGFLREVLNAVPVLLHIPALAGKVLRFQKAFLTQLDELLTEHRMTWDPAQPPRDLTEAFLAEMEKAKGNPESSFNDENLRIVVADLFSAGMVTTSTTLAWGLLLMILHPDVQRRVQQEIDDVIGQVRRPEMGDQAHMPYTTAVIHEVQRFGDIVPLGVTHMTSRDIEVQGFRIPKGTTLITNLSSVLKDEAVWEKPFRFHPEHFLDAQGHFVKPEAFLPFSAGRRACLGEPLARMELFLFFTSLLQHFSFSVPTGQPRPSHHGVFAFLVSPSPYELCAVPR

CYP2C9 = CYP2C9 (Homo sapiens, UniProt P11712); assay: CYP inhibition CYP2C9
Sequence of CYP2C9 (P11712 whole entry): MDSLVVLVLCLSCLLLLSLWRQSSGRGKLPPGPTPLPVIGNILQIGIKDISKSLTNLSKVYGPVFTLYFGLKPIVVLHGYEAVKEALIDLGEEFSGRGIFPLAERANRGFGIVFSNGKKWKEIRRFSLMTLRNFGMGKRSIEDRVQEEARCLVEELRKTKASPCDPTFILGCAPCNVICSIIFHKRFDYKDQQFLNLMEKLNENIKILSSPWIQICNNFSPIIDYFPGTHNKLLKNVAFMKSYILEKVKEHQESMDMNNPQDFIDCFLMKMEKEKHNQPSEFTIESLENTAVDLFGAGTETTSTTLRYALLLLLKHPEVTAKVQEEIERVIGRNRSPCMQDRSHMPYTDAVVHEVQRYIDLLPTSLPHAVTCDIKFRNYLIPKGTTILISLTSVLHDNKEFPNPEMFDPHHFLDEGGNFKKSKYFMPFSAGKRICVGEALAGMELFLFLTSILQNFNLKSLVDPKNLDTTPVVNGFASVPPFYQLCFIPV

H1 = H1 (Homo sapiens, UniProt P35367); assay: Compound Binding Profiles: H1; settings: * = Estimated IC50
Sequence of H1 (P35367 whole entry): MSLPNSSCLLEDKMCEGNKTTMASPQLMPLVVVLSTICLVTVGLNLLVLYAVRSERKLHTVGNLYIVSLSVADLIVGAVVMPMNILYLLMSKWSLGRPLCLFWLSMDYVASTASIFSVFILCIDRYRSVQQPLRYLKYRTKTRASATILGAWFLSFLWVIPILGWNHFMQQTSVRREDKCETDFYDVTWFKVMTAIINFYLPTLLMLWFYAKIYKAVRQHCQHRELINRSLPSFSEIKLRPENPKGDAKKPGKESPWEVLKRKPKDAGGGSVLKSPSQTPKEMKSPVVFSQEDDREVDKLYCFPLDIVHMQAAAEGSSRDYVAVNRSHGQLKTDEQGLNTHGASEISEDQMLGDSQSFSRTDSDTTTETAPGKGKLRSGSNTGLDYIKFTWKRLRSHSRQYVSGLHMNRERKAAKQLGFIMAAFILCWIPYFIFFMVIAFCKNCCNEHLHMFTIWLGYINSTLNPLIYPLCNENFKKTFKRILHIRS

COc1cc(Cl)cc(C(C)Nc2cc(N3CCNCC3)ccc2S(C)(=O)=O)c1OC.Cl (centres unmarked) [Compound A, [1-(5-Chloro-2,3-dimethoxy-phenyl)-ethyl]-(2-methanesulfonyl-5-piperazin-1-yl-phenyl)-amine hydrochloride]
IC50 (M1): 3.4 µM
Ki (D4): 100 to 1000 nM
Ki (D1): 100 to 1000 nM
IC50 (CYP3A4): > 7.5 µM
bioavailability [1]: 38%
half-life [1]: 90 min
IC50 (5HT2A): 2500 nM
stability (HLM) (Stability in HLM): > 90 min
IC50 (CYP2D6): 7.81 µM
IC50 (CYP2C9): > 7.5 µM
IC50 (H1): 22 µM
